In ChEMBL document CHEMBL1152560, “Substituted 2-arylbenzothiazoles as kinase inhibitors: hit-to-lead optimization” (Bioorg Med Chem, 2009):

Columns and labels:
[1] = target: T1, Aurora kinase A (Homo sapiens) (UniProt O14965); assay: Residual activity of Aurora-A at 1 uM by microplate scintillation counting
T1 sequence (whole entry): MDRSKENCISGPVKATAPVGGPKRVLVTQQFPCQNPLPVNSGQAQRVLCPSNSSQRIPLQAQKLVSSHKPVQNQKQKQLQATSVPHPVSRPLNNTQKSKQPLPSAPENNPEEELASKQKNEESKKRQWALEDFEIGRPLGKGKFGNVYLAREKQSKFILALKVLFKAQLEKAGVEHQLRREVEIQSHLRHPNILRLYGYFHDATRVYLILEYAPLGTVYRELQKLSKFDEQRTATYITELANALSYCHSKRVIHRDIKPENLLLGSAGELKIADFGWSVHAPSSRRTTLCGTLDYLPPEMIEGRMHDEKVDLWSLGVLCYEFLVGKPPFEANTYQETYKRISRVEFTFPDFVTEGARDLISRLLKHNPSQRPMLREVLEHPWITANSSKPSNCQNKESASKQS

[2] = target: Mitogen-activated protein kinase 8 (Homo sapiens) (UniProt P45983); assay: Residual activity of JNK1 at 0.1 uM by microplate scintillation counting
[3] = test system: RAF proto-oncogene serine/threonine-protein kinase (Homo sapiens), P04049 [Y340D,Y341D]; assay: Residual activity of RAF1 Y340D/Y341D mutant at 10 uM by microplate scintillation counting
[4] = target: Tyrosine-protein kinase ABL2 (Homo sapiens) (UniProt P42684); assay: Residual activity of ABL2 at 1 uM by microplate scintillation counting
[5] = target: Tyrosine-protein kinase Fes/Fps (Homo sapiens) (UniProt P07332); assay: Residual activity of FES at 10 uM by microplate scintillation counting
[6] = target: Non-receptor tyrosine-protein kinase TYK2 (Homo sapiens) (UniProt P29597); assay: Residual activity of TYK2 at 0.1 uM by microplate scintillation counting
[7] = target: Ephrin type-A receptor 4 (Homo sapiens) (UniProt P54764); assay: Residual activity of EPHA4 at 1 uM by microplate scintillation counting
[8] = target: Calcium/calmodulin-dependent protein kinase type II subunit delta (Homo sapiens) (UniProt Q13557); assay: Residual activity of CAMK2D at 0.1 uM by microplate scintillation counting
[9] = target: Mitogen-activated protein kinase 8 (Homo sapiens) (UniProt P45983); assay: Residual activity of JNK1 at 1 uM by microplate scintillation counting
[10] = target: High affinity nerve growth factor receptor (Homo sapiens) (UniProt P04629); assay: Residual activity of TRK-A at 1 uM by microplate scintillation counting
[11] = target: T2, Serine/threonine-protein kinase Nek3 (Homo sapiens) (UniProt P51956); assay: Residual activity of NEK3 at 10 uM by microplate scintillation counting
T2 sequence (whole entry): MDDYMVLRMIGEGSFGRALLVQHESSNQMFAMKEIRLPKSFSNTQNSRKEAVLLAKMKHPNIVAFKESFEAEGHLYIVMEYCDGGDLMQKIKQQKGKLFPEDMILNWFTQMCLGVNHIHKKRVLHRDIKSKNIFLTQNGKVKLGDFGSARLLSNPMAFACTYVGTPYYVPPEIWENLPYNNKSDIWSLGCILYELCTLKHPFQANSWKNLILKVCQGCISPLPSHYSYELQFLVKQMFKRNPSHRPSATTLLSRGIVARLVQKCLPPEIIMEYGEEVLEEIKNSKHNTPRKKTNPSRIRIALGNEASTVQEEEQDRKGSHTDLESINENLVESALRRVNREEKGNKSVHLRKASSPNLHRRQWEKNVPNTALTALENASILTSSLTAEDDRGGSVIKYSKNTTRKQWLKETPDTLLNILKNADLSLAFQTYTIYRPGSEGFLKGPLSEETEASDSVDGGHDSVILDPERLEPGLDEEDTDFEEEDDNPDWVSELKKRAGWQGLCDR

[12] = target: Proto-oncogene tyrosine-protein kinase Src (Homo sapiens) (UniProt P12931); assay: Residual activity of SRC at 1 uM by microplate scintillation counting
[13] = target: Dual specificity tyrosine-phosphorylation-regulated kinase 1A (Homo sapiens) (UniProt Q13627); assay: Residual activity of DYRK1A at 10 uM by microplate scintillation counting
[14] = target: RAC-beta serine/threonine-protein kinase (Homo sapiens) (UniProt P31751); assay: Residual activity of AKT2 at 0.1 uM by microplate scintillation counting
[15] = target: Vascular endothelial growth factor receptor 2 (Homo sapiens, UniProt P35968); assay: Residual activity of VEGFR2 at 0.1 uM by microplate scintillation counting
[16] = target: Homeodomain-interacting protein kinase 3 (Homo sapiens) (UniProt Q9H422); assay: Residual activity of HIPK3 at 10 uM by microplate scintillation counting
[17] = target: Tyrosine-protein kinase Fer (Homo sapiens) (UniProt P16591); assay: Residual activity of FER at 0.1 uM by microplate scintillation counting
[18] = target: MAP kinase-activated protein kinase 3 (Homo sapiens) (UniProt Q16644); assay: Residual activity of MAPKAPK3 at 10 uM by microplate scintillation counting
[19] = target: Cyclin-dependent kinase 16 (Homo sapiens) (UniProt Q00536); assay: Residual activity of PCTAIRE1 at 0.1 uM by microplate scintillation counting
[20] = target: T3, cGMP-dependent protein kinase 2 (Homo sapiens) (UniProt Q13237); assay: Residual activity of PRKG2 at 0.1 uM by microplate scintillation counting
T3 sequence (whole entry): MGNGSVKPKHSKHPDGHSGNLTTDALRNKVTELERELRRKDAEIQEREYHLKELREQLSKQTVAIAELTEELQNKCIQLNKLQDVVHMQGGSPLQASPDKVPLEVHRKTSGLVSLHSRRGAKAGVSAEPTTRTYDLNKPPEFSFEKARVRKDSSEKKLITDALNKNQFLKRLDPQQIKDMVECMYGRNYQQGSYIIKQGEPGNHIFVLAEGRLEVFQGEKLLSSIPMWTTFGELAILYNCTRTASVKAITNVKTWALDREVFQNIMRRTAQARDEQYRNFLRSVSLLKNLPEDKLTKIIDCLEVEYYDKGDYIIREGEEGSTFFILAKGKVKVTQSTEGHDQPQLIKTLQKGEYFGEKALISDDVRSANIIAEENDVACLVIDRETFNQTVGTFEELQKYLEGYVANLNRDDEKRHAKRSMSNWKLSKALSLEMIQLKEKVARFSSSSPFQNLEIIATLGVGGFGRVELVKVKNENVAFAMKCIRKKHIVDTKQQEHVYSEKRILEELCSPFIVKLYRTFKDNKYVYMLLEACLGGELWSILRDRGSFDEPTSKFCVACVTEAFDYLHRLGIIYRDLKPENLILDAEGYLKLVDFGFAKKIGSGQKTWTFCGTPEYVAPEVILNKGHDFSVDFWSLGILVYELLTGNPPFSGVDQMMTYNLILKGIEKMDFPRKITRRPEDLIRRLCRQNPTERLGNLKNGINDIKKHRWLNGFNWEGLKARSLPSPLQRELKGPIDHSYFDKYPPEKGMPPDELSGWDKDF

Chain of Vascular endothelial growth factor receptor 2 (P35968 whole entry): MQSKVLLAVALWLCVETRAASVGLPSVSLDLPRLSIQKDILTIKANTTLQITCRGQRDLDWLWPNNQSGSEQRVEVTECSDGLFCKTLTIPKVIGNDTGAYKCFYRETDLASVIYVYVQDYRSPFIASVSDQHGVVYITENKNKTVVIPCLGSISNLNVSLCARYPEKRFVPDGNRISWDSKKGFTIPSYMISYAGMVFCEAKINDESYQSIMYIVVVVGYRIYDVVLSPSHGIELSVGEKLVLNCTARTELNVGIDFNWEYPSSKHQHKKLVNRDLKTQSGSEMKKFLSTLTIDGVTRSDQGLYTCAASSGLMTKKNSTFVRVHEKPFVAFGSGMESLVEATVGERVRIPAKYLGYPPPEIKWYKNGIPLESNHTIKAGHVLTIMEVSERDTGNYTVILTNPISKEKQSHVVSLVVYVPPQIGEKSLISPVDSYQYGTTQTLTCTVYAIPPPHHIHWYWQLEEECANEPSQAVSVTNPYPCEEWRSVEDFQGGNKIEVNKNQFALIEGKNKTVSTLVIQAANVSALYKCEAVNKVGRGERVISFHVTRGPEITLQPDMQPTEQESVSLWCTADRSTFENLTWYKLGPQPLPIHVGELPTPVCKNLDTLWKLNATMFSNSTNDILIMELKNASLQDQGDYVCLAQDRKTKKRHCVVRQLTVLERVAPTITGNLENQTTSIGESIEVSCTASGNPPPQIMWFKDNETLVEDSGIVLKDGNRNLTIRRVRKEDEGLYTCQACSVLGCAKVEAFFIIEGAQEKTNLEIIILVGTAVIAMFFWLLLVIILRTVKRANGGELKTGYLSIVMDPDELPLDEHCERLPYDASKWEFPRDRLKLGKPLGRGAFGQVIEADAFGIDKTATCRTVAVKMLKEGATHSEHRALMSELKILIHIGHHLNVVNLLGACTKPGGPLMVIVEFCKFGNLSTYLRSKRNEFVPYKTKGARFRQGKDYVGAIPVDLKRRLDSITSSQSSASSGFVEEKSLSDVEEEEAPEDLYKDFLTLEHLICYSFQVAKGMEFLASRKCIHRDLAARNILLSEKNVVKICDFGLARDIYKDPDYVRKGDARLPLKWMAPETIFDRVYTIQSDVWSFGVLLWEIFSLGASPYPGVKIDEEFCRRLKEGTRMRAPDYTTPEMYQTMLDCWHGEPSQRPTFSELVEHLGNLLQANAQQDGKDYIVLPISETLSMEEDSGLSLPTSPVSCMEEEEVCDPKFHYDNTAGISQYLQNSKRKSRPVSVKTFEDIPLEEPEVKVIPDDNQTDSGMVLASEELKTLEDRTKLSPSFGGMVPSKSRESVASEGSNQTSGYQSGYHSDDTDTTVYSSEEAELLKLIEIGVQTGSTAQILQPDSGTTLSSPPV
Chain of Tyrosine-protein kinase Fes/Fps (Homo sapiens) (P07332 whole entry): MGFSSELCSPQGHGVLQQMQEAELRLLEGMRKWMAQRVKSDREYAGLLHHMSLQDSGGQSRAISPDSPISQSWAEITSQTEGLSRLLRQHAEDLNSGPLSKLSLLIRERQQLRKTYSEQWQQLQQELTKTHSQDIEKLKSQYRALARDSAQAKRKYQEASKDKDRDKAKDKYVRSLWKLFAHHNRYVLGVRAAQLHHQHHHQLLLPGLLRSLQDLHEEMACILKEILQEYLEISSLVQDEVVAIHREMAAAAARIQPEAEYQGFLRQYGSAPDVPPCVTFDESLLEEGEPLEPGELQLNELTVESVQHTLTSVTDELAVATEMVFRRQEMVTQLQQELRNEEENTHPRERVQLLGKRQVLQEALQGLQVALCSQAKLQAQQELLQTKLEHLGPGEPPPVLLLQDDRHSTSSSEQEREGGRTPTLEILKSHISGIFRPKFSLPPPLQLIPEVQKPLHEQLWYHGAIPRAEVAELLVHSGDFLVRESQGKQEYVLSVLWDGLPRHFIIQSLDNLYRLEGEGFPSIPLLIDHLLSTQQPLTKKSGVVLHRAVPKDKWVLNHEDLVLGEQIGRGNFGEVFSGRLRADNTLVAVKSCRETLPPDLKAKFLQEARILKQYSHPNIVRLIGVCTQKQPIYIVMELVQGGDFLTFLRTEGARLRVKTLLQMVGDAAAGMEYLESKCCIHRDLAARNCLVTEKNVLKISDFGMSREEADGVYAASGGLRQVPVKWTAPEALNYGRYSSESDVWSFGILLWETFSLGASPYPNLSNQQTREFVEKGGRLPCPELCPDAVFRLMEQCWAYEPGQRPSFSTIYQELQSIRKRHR
Chain of MAP kinase-activated protein kinase 3 (Homo sapiens) (Q16644 whole entry, looked up): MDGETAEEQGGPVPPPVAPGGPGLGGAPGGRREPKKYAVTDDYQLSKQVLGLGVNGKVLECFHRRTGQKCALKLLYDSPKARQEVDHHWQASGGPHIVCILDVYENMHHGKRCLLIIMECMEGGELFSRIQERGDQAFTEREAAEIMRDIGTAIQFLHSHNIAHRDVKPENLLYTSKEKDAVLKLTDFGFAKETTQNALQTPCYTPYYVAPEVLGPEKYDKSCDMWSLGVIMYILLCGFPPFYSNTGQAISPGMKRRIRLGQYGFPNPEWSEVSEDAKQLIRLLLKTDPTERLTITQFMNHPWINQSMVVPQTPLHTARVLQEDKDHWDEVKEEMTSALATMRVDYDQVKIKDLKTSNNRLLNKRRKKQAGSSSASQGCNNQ
Chain of Tyrosine-protein kinase ABL2 (Homo sapiens) (P42684 whole entry): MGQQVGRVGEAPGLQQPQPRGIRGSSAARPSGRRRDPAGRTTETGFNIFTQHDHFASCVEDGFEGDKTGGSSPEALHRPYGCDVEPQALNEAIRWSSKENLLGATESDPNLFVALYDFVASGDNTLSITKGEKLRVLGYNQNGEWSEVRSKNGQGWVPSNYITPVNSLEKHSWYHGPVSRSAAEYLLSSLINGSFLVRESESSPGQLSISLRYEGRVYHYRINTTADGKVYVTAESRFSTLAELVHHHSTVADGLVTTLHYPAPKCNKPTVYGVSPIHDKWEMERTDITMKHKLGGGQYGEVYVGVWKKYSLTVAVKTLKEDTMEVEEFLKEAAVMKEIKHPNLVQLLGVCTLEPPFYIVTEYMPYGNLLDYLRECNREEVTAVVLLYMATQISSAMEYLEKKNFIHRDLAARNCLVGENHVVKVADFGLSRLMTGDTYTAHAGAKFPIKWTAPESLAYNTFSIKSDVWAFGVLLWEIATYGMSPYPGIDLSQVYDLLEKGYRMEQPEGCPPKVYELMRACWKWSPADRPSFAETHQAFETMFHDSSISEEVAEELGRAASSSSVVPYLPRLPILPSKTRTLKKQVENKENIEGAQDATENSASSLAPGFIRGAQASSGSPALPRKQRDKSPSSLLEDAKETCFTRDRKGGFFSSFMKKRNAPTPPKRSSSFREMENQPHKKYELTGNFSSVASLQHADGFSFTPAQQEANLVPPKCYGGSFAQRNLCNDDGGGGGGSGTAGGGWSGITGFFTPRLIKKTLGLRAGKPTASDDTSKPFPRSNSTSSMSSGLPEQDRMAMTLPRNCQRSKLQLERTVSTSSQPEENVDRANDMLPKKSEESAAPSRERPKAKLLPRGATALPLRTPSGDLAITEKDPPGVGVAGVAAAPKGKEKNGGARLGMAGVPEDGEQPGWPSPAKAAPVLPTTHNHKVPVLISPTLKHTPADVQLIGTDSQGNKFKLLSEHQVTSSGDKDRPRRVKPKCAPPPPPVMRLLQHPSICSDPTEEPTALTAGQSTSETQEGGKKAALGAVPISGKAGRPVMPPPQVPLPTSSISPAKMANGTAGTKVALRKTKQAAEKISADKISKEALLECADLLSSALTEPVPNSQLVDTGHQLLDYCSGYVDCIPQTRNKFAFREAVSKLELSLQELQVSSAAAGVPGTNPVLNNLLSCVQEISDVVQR
Chain of Homeodomain-interacting protein kinase 3 (Homo sapiens) (Q9H422 whole entry, looked up): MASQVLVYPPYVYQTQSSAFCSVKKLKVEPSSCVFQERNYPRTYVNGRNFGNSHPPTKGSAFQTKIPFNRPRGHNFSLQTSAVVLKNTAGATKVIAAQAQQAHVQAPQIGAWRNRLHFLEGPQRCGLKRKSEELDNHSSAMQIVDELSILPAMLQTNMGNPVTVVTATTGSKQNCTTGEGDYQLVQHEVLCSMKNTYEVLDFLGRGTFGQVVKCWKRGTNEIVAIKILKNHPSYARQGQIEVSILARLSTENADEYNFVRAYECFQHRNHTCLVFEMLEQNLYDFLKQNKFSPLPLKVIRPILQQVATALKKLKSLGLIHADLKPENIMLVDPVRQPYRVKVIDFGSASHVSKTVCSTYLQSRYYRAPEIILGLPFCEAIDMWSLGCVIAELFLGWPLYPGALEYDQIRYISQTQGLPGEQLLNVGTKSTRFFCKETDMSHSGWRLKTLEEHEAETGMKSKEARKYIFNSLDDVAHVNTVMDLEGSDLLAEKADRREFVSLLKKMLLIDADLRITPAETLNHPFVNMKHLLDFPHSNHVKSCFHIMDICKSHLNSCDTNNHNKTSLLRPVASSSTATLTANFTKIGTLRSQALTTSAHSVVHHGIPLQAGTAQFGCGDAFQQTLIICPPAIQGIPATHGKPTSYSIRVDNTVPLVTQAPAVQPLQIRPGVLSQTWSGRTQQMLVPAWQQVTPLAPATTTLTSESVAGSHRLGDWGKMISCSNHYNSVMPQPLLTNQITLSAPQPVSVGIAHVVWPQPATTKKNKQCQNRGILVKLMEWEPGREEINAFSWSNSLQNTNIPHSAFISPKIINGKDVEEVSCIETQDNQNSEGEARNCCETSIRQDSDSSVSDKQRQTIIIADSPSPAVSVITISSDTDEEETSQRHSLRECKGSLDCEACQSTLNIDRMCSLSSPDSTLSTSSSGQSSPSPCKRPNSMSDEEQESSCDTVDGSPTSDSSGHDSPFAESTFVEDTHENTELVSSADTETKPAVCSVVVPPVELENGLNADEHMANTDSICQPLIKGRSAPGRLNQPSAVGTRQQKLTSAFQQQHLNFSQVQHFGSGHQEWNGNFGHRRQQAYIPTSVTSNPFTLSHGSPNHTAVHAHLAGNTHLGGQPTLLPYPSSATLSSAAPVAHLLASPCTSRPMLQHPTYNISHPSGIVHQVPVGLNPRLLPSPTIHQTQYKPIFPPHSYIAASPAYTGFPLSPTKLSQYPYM

Structure (SMILES)	residual activity [1]	residual activity [2]	residual activity [3]	residual activity [4]	residual activity [5]	residual activity [6]	residual activity [7]	residual activity [8]	residual activity [9]	residual activity [10]	residual activity [11]	residual activity [12]	residual activity [13]	residual activity [14]	residual activity [15]	residual activity [16]	residual activity [17]	residual activity [18]	residual activity [19]	residual activity [20]
COc1cc2c(Oc3ccc(-c4nc5ccccc5s4)cc3F)ncnc2cc1OCCCN1CCN(C)CC1	28%	101%	108%	87%	112%	102%	92%	105%	154%	86%	132%	89%	101%	108%	73%	142%	108%	42%	76%	86%
COc1cc2c(Oc3ccc(-c4nc5ccccc5s4)cc3)ncnc2cc1OCCCN1CCCC1	25%	106%	61%	98%	208%	94%	94%	87%	142%	72%	154%	95%	89%	102%	73%	147%	96%	67%	83%	84%
COc1cc2c(Oc3ccc(-c4nc5ccccc5s4)cc3)ncnc2cc1OCCCN1CCN(C)CC1	22%	98%	74%	99%	153%	90%	102%	92%	142%	83%	145%	87%	103%	97%	65%	132%	104%	41%	78%	87%
